Experimental data published in ChEMBL document CHEMBL5223109, “The discovery of BMS-737 as a potent, CYP17 lyase-selective inhibitor for the treatment of castration-resistant prostate cancer” (Bioorg Med Chem Lett, 2022).
pIC50: −log10 of the molar value.

Experiments:
[1] = target: T1, Steroid 17-alpha-hydroxylase/17,20 lyase (Homo sapiens, UniProt P05093); assay: Inhibition of human CYP17A1 hydroxylase activity; format: ADME
T1 sequence (P05093 whole entry): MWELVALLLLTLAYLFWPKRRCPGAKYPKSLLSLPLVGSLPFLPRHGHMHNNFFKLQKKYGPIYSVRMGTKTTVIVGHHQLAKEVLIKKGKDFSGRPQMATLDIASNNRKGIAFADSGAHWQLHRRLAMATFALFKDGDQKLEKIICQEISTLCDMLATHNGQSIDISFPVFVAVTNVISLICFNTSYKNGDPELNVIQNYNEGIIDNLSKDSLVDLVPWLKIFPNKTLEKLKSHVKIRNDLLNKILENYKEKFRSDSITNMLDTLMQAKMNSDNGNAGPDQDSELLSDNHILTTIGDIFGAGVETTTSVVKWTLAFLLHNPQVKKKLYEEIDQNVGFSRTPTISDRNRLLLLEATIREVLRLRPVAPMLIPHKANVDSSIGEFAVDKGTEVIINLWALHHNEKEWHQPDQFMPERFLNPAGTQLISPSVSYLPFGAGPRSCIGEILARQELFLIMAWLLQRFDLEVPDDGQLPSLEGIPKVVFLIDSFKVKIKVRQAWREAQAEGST

[2] = target: T2, Nuclear receptor subfamily 1 group I member 2 (Homo sapiens, UniProt O75469); assay: Inhibition of PXR (unknown origin)
T2 sequence (O75469 whole entry): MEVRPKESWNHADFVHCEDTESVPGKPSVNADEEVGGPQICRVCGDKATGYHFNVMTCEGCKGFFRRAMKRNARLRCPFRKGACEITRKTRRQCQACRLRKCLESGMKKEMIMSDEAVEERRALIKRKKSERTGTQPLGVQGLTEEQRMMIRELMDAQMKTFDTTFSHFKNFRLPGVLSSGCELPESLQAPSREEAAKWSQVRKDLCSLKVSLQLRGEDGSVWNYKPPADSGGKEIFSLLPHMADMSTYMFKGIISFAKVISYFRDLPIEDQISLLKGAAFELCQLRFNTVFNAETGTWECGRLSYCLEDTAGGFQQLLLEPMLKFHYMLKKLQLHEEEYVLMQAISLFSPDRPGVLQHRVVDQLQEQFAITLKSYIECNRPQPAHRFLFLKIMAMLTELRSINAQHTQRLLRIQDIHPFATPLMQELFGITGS

- pIC50 [1]: 7.04
- pIC50 [2]: < 4.30
Structure (SMILES): Nc1ncncc1-c1ccnc2c1cnn2-c1ccc(F)cc1
